Measured values: US20040043920A1, “Compound for chelating a metal, radiopharmaceutical, manufacturing process therefor, and diagnostic kit” (priority 2000, published 2004)

What was measured:
[1] = Brain distribution in the rat: crossing of the blood-brain barrier and striatum/cerebellum ratio; format: in vivo
Method: The model chosen is the rat. Depending on the compounds, we performed one or two sacrifice times (30 minutes or 1 hour).
At the times chosen, the brains were removed and the areas of interest were isolated and counted.
the crossing of the blood-brain barrier by the compound under consideration,
a striatum/cerebellum ratio.

[2] = Bioavailability (biodistribution) of radiolabelled Lys-Lys bis-dithiocarbamate in rats; format: in vivo; settings: rat
Method: (§1) The molecule was radiolabelled as described in Example (29). The radiolabelled compound is then isolated by HPLC, evaporated and taken up in 0.9% saline medium. The bioavailability in rats gives the following results (see Table 1):
time 30 minutes and 60 minutes: 3 animals per point,
time 3 hours: 2 animals per point,
time 24 hours: 1 animal per point.
The results are expressed as a percentage of dose injected per organ.

[3] = HPLC analysis of rats' urine for unchanged complex; format: in vivo, rat; settings: rats' urine collected 1 hour 30 minutes after injection
Method: as §1
The rats' urine was collected 1 hour 30 minutes after injection and analysed by HPLC. The result of this analysis is 87% of unchanged complex.

Cc1ccc(C2CC3CCC(C2COC(=O)C2CCCCNC(=S)[S][Tc](#[N])[S]C(=S)NCCCCC(=O)N2)N3C)cc1 (centres unmarked) [Compound 52]
Biodistribution: cerebellum ([1]; 30′): 30′: cerebellum: 0.114%
Biodistribution: crossing of blood-brain barrier ([1]; 30′): barrier: 0.358%
Biodistribution: striatum ([1]; 30′): striatum: 0.133%
S/C (striatum/cerebellum ratio) ([1]; 30′): 1.17
Biodistribution: cerebellum ([1]; 1 h): 1 h: cerebellum: 0.065%
Biodistribution: crossing of blood-brain barrier ([1]; 1 h): barrier: 0.182%
Biodistribution: striatum ([1]; 1 h): striatum: 0.064%
S/C (striatum/cerebellum ratio) ([1]; 1 h): 0.98

NC(CCCCNC(=S)S)C(=O)NC(CCCCNC(=S)S)C(=O)O (centres unmarked) [Lys-Lys Bis-Dithiocarbamate]
percentage of dose injected per organ, adrenals ([2]; 30 min): 0.02 percentage of dose injected per organ
percentage of dose injected per organ, adrenals ([2]; 1 h): 0.01 percentage of dose injected per organ
percentage of dose injected per organ, adrenals ([2]; 3 h): 0.01 percentage of dose injected per organ
percentage of dose injected per organ, adrenals ([2]; 24 h): 0.00 percentage of dose injected per organ
percentage of dose injected per organ, bladder ([2]; 30 min): 0.47 percentage of dose injected per organ
percentage of dose injected per organ, bladder ([2]; 1 h): 0.32 percentage of dose injected per organ
percentage of dose injected per organ, bladder ([2]; 3 h): 0.05 percentage of dose injected per organ
percentage of dose injected per organ, bladder ([2]; 24 h): 0.01 percentage of dose injected per organ
percentage of dose injected per organ, blood ([2]; 30 min): 0.67 percentage of dose injected per organ
percentage of dose injected per organ, blood ([2]; 1 h): 0.34 percentage of dose injected per organ
percentage of dose injected per organ, blood ([2]; 3 h): 0.20 percentage of dose injected per organ
percentage of dose injected per organ, blood ([2]; 24 h): 0.11 percentage of dose injected per organ
percentage of dose injected per organ, brain ([2]; 30 min): 0.03 percentage of dose injected per organ
percentage of dose injected per organ, brain ([2]; 1 h): 0.01 percentage of dose injected per organ
percentage of dose injected per organ, brain ([2]; 3 h): 0.01 percentage of dose injected per organ
percentage of dose injected per organ, brain ([2]; 24 h): 0.01 percentage of dose injected per organ
percentage of dose injected per organ, caecum ([2]; 30 min): 0.31 percentage of dose injected per organ
percentage of dose injected per organ, caecum ([2]; 1 h): 0.18 percentage of dose injected per organ
percentage of dose injected per organ, caecum ([2]; 3 h): 0.11 percentage of dose injected per organ
percentage of dose injected per organ, caecum ([2]; 24 h): 0.66 percentage of dose injected per organ
percentage of dose injected per organ, colon ([2]; 30 min): 0.46 percentage of dose injected per organ
percentage of dose injected per organ, colon ([2]; 1 h): 0.23 percentage of dose injected per organ
percentage of dose injected per organ, colon ([2]; 3 h): 0.19 percentage of dose injected per organ
percentage of dose injected per organ, colon ([2]; 24 h): 0.87 percentage of dose injected per organ
percentage of dose injected per organ, heart ([2]; 30 min): 0.21 percentage of dose injected per organ
percentage of dose injected per organ, heart ([2]; 1 h): 0.10 percentage of dose injected per organ
percentage of dose injected per organ, heart ([2]; 3 h): 0.06 percentage of dose injected per organ
percentage of dose injected per organ, heart ([2]; 24 h): 0.03 percentage of dose injected per organ
percentage of dose injected per organ, intestine ([2]; 30 min): 20.55 percentage of dose injected per organ
percentage of dose injected per organ, intestine ([2]; 1 h): 32.92 percentage of dose injected per organ
percentage of dose injected per organ, intestine ([2]; 3 h): 51.4 percentage of dose injected per organ
percentage of dose injected per organ, intestine ([2]; 24 h): 0.49 percentage of dose injected per organ
percentage of dose injected per organ, kidneys ([2]; 30 min): 4.55 percentage of dose injected per organ
percentage of dose injected per organ, kidneys ([2]; 1 h): 4.18 percentage of dose injected per organ
percentage of dose injected per organ, kidneys ([2]; 3 h): 3.87 percentage of dose injected per organ
percentage of dose injected per organ, kidneys ([2]; 24 h): 2.65 percentage of dose injected per organ
percentage of dose injected per organ, liver ([2]; 30 min): 14.38 percentage of dose injected per organ
percentage of dose injected per organ, liver ([2]; 1 h): 9.08 percentage of dose injected per organ
percentage of dose injected per organ, liver ([2]; 3 h): 3.84 percentage of dose injected per organ
percentage of dose injected per organ, liver ([2]; 24 h): 1.33 percentage of dose injected per organ
percentage of dose injected per organ, lungs ([2]; 30 min): 0.43 percentage of dose injected per organ
percentage of dose injected per organ, lungs ([2]; 1 h): 0.28 percentage of dose injected per organ
percentage of dose injected per organ, lungs ([2]; 3 h): 0.15 percentage of dose injected per organ
percentage of dose injected per organ, lungs ([2]; 24 h): 0.08 percentage of dose injected per organ
percentage of dose injected per organ, spleen ([2]; 30 min): 0.13 percentage of dose injected per organ
percentage of dose injected per organ, spleen ([2]; 1 h): 0.09 percentage of dose injected per organ
percentage of dose injected per organ, spleen ([2]; 3 h): 0.05 percentage of dose injected per organ
percentage of dose injected per organ, spleen ([2]; 24 h): 0.04 percentage of dose injected per organ
percentage of dose injected per organ, stomach ([2]; 30 min): 8.24 percentage of dose injected per organ
percentage of dose injected per organ, stomach ([2]; 1 h): 3.36 percentage of dose injected per organ
percentage of dose injected per organ, stomach ([2]; 3 h): 2.64 percentage of dose injected per organ
percentage of dose injected per organ, stomach ([2]; 24 h): 0.08 percentage of dose injected per organ
percentage of dose injected per organ, urine ([2]; 30 min): 14.39 percentage of dose injected per organ
percentage of dose injected per organ, urine ([2]; 1 h): 14.70 percentage of dose injected per organ
percentage of dose injected per organ, urine ([2]; 3 h): 0.44 percentage of dose injected per organ
percentage of dose injected per organ, urine ([2]; 24 h): 0.05 percentage of dose injected per organ
unchanged complex in urine [3]: 87%
